According to patent US20240124434A1, “ATF6 INHIBITORS AND USES THEREOF” (Altos Labs, Inc., priority 2018, published 2024):
Read-outs that look alike come from different tables or passages of the source.

Tested on: ATF6
Assay: ERSE ATF6-luciferase reporter assay (thapsigargin-induced ER stress)
Type: cell-based, human
Conditions: Homo sapiens, U2OS, thapsigargin-induced ER stress, U2-OS ATF6 luc reporter cells; for inhibition at 1 µM: 8 hr
Description: Human bone osteosarcoma (U2-OS) cells were obtained from the American Type Culture Collection (ATCC HTB-96, ATCC Manassas, VA) and were cultured with growing medium containing Dulbecco's Modified Eagle's Medium (DMEM) (Cat. No.:SH30023.02, HyClone) supplemented with fetal bovine serum (FBS) 10% (Cat. No.: 16000044, Gibco) and 1% penicillin-streptomycin antibiotic cocktail (Cat. No.: SV30010, Hyclone).
Cignal Lenti ATF6 luc reporter (Qiagen #CLS-6031L) was used to produce a stable cell line in U2-OS cells. […] The number of response elements as well as the intervening sequence between response elements has been experimentally optimized to maximize the signal to noise ratio.
Compounds were prepared as 10 mM stock solutions and stored at −80° C.
U2-OS ATF6 luc reporter cells were thawed 3-4 days and split once prior to assays. […] At the day of experiment, cells were pre-treated for 30 min with 50 μL growing medium containing either vehicle (dimethyl sulfoxide (DMSO)) (Cat. No.: D2650, Sigma-Aldrich) or 1 μM test compound. After the pre-incubation time, 50 μL of a solution containing 0.2 μM thapsigargin (Tg)(an ER stress inducer) was added to respective wells. This Tg solution also contained vehicle or test compounds at 1 μM. The final concentration of DMSO in each well was kept at 0.3%. Plates were incubated for 8 hr in humidified chambers.
Finally, after 8 hr, plates were cooled to room temperature for 10 min prior to luciferase assays. Luciferase reactions were performed using Luciferase Assay System (Cat. No.: E4550, Promega). Briefly, each well was washed with 100 μl of PBS1X and then 20 μl of lysis reagent were added into each well. Plates were shaken for 10 min, then 50 μl of Luciferase Assay Reagent were added to each well and luminescence was read with an integration time of 1 s and a gain of 110 in a Synergy 4 Microplate reader.
For the assessment of the half-maximal inhibitory concentration (IC50) for selected compounds, dose-response assays were performed. Compounds were serially diluted using DMSO starting at 30 μM until 1 nM. The assays were run as described above.

[1] = 8 h, 1 μM test compound, read-out: Inh. ATF6-Luc @ 1 μM [%]
[2] = dose-response 30 μM to 1 nM, read-out: IC50 ATF6-Luc reporter

Structure (SMILES)	inhibition at 1 µM [1] [%]	IC50 [2] [µM]	inhibition at 1 µM (1 μM test compound, read-out: Inh. ATF6-Luc @ 1 μM [%]) [%]	inhibition at 1 µM (8 h, read-out: Inh. ATF6-Luc @ 1 μM [%], 1 μM test compound) [%]	IC50 (read-out: IC50 ATF6-Luc reporter [μM], dose-response 30 μM to 1 nM) [µM]
C[C@H](c1ccc(C(F)(F)F)cc1C(F)(F)F)n1cc(NC(=O)/C=C/c2ccco2)cn1 [Compound 85, (R,E)—N-(1-(1-(2,4-bis(trifluoromethyl)phenyl)ethyl)-1H-pyrazol-4-yl)-3-(furan-2-yl)acrylamide]	< 25	> 10			
C[C@@H](c1ccc(C(F)(F)F)cc1C(F)(F)F)n1cc(NC(=O)/C=C/c2ccco2)cn1 [Compound 86, (S,E)—N-(1-(1-(2,4-bis(trifluoromethyl)phenyl)ethyl)-1H-pyrazol-4-yl)-3-(furan-2-yl)acrylamide]	< 25	> 10			
Cc1nn(-c2ccc(C(F)(F)F)cc2C(F)(F)F)cc1NC(=O)/C=C/c1ccco1 [Compound 87, (E)—N-(1-(2,4-bis(trifluoromethyl)phenyl)-3-methyl-1H-pyrazol-4-yl)-3-(furan-2-yl)acrylamide]	< 25	> 10			
COc1ccccc1-c1cc(C(=O)Nc2cnn([C@H](C)c3ccc(C(F)(F)F)cc3C(F)(F)F)c2)no1 [Compound 88, (R)N-(1-(1-(2,4-bis(trifluoromethyl)phenyl)ethyl)-1H-pyrazol-4-yl)-5-(2-methoxyphenyl)isoxazole-3-carboxamide]	< 25	> 10			
COc1ccccc1-c1cc(C(=O)Nc2cnn([C@@H](C)c3ccc(C(F)(F)F)cc3C(F)(F)F)c2)no1 [Compound 89, (S)N-(1-(1-(2,4-bis(trifluoromethyl)phenyl)ethyl)-1H-pyrazol-4-yl)-5-(2-methoxyphenyl)isoxazole-3-carboxamide]	< 25	> 10			
Cc1nn(-c2ccc(C(F)(F)F)cc2C(F)(F)F)cc1NC(=O)c1cc(-c2ccccn2)on1 [Compound 90, N-(1-(2,4-bis(trifluoromethyl)phenyl)-3-methyl-1H-pyrazol-4-yl)-5-(pyridin-2-yl)isoxazole-3-carboxamide]	< 25	> 10			
COc1ccccc1-c1cc(C(=O)Nc2cnn(Cc3ccc(C(F)(F)F)cc3C(F)(F)F)c2)no1 [Compound 91, N-(1-(2,4-bis(trifluoromethyl)benzyl)-1H-pyrazol-4-yl)-5-(2-methoxyphenyl)isoxazole-3-carboxamide]		> 10	< 25		
Cc1nn(Cc2ccc(C(F)(F)F)cc2C(F)(F)F)cc1NC(=O)c1cc(-c2ccco2)on1 [Compound 92, N-(1-(2,4-bis(trifluoromethyl)benzyl)-3-methyl-1H-pyrazol-4-yl)-5-(furan-2-yl)isoxazole-3-carboxamide]	< 25	> 10			
Cc1nn(-c2ccc(C(F)(F)F)cc2C(F)(F)F)cc1NC(=O)c1cc(-c2ccco2)on1 [Compound 94, N-(1-(2,4-bis(trifluoromethyl)phenyl)-3-methyl-1H-pyrazol-4-yl)-5-(furan-2-yl)isoxazole-3-carboxamide]	< 25	> 10			
Cc1c(NC(=O)/C=C/c2ccco2)cnn1Cc1ccc(C(F)(F)F)cc1C(F)(F)F [Compound 95, (E)—N-(1-(2,4-bis(trifluoromethyl)benzyl)-5-methyl-1H-pyrazol-4-yl)-3-(furan-2-yl)acrylamide]	< 25	> 10			
Cc1nn(Cc2ccc(C(F)(F)F)cc2C(F)(F)F)cc1NC(=O)/C=C/c1ccco1 [Compound 96, (E)—N-(1-(2,4-bis(trifluoromethyl)benzyl)-3-methyl-1H-pyrazol-4-yl)-3-(furan-2-yl)acrylamide]	< 25	> 10			
Cc1c(NC(=O)c2cc(-c3ccccn3)on2)cnn1[C@@H](C)c1ccc(C(F)(F)F)cc1C(F)(F)F [Compound 98, (S)—N-(1-(1-(2,4-bis(trifluoromethyl)phenyl)ethyl)-5-methyl-1H-pyrazol-4-yl)-5-(pyridin-2-yl)isoxazole-3-carboxamide]	< 25	> 10			
C[C@@H](c1ccc(C(F)(F)F)cc1C(F)(F)F)n1cc(NC(=O)c2cc(-c3ncccn3)on2)cn1 [Compound 102, (S)—N-(1-(1-(2,4-bis(trifluoromethyl)phenyl)ethyl)-1H-pyrazol-4-yl)-5-(pyrimidin-2-yl)isoxazole-3-carboxamide]	< 25	> 10			
C[C@@H](c1ccc(C(F)(F)F)cc1C(F)(F)F)n1cc(NC(=O)c2cnc(-c3ccccn3)s2)cn1 [Compound 105, (S)—N-(1-(1-(2,4-bis(trifluoromethyl)phenyl)ethyl)-1H-pyrazol-4-yl)-2-(pyridin-2-yl)thiazole-5-carboxamide]				< 25	> 10
Cc1nc(-c2ccccn2)sc1C(=O)Nc1cnn([C@H](C)c2ccc(C(F)(F)F)cc2C(F)(F)F)c1 [Compound 106, (R)—N-(1-(1-(2,4-bis(trifluoromethyl)phenyl)ethyl)-1H-pyrazol-4-yl)-4-methyl-2-(pyridin-2-yl)thiazole-5-carboxamide]	< 25	> 10			
Cc1nc(-c2ccccn2)sc1C(=O)Nc1cnn([C@@H](C)c2ccc(C(F)(F)F)cc2C(F)(F)F)c1 [Compound 107, (S)—N-(1-(1-(2,4-bis(trifluoromethyl)phenyl)ethyl)-1H-pyrazol-4-yl)-4-methyl-2-(pyridin-2-yl)thiazole-5-carboxamide]	< 25	> 10			
C[C@H](c1ccc(C(F)(F)F)cc1F)n1cc(NC(=O)c2cc(-c3ccccn3)on2)cn1 [Compound 108, (R)—N-(1-(1-(2-fluoro-4-(trifluoromethyl)phenyl)ethyl)-1H-pyrazol-4-yl)-5-(pyridine-2-yl)isoxazole-3-carboxamide]	< 25	> 10			
C[C@@H](c1ccc(C(F)(F)F)cc1F)n1cc(NC(=O)c2cc(-c3ccccn3)on2)cn1 [Compound 109, (S)—N-(1-(1-(2-fluoro-4-(trifluoromethyl)phenyl)ethyl)-1H-pyrazol-4-yl)-5-(pyridine-2-yl)isoxazole-3-carboxamide]	< 25	> 10			
C[C@@H](c1ccc(F)cc1C(F)(F)F)n1cc(NC(=O)c2cc(-c3ccccn3)on2)cn1 [Compound 111, (S)—N-(1-(1-(4-fluoro-2-(trifluoromethyl)phenyl)ethyl)-1H-pyrazol-4-yl)-5-(pyridin-2-yl)isoxazole-3-carboxamide]	< 25	> 10			
CC(c1ccc(C(F)(F)F)cc1C(F)(F)F)n1cc(NC(=O)c2cc(-c3ccccn3)nn2C)cn1 (stereo not drawn) [Compound 112, N-(1-(1-(2,4-bis(trifluoromethyl)phenyl)ethyl)-1H-pyrazol-4-yl)-1-methyl-3-(pyridin-2-yl)-1H-pyrazole-5-carboxamide]	25 to 50	> 10			
CC(c1ccc(C(F)(F)F)cc1C(F)(F)F)n1cc(NC(=O)c2cc(-c3ccccn3)n(C)n2)cn1 (stereo not drawn) [Compound 113, N-(1-(1-(2,4-bis(trifluoromethyl)phenyl)ethyl)-1H-pyrazol-4-yl)-1-methyl-5-(pyridin-2-yl)-1H-pyrazole-3-carboxamide]	< 25	> 10			
Cc1cccc(-c2cc(C(=O)Nc3cnn(Cc4ccc(C(F)(F)F)cc4C(F)(F)F)c3)no2)n1 [Compound 115, N-(1-(2,4-bis(trifluoromethyl)benzyl)-1H-pyrazol-4-yl)-5-(6-methylpyridin-2-yl)isoxazole-3-carboxamide]	25 to 50	> 10			
Cc1cccc(-c2cc(C(=O)Nc3cnn([C@H](C)c4ccc(C(F)(F)F)cc4C(F)(F)F)c3)no2)n1 [Compound 116, (R)—N-(1-(1-(2,4-bis(trifluoromethyl)phenyl)ethyl)-1H-pyrazol-4-yl)-5-(6-methylpyridin-2-yl)isoxazole-3-carboxamide]	25 to 50	> 10			
Cc1cccc(-c2cc(C(=O)Nc3cnn([C@@H](C)c4ccc(C(F)(F)F)cc4C(F)(F)F)c3)no2)n1 [Compound 117, (S)—N-(1-(1-(2,4-bis(trifluoromethyl)phenyl)ethyl)-1H-pyrazol-4-yl)-5-(6-methylpyridin-2-yl)isoxazole-3-carboxamide]	< 25	> 10			
